From patent US20050267133A1, “Pyrazolopyrimidines as kinase inhibitors” (priority 2002, published 2005)

Legend:
[1] = target: T1, GST-TIE2 (intracellular domains of human TIE2) (Homo sapiens, UniProt Q02763); test: TIE-2 Enzyme Assay (TIE2-E), LANCE method; assay type: biochemical; details: preactivated GST-TIE2, 1 μM D1-15 peptide, 80 uM ATP, 30 mins at room temperature; pIC50 = -log IC50 in Molar
T1 construct: made in house
Source text: The TIE-2 enzyme assay used the LANCE method (Wallac) and GST-TIE2, baculovirus expressed recombinant constructs of the intracellular domains of human TIE2 (amino acids 762-1104, GenBank Accession # L06139) tagged by GST). The method measured the ability of the purified enzymes to catalyse the transfer of the γ-phosphate from ATP onto tyrosine residues in a biotinylated synthetic peptide, D1-15 (biotin-C6-LEARLVAYEGWVAGKKKamide). This peptide phosphorylation was detected using the following procedure: for enzyme preactivation, GST-TIE2 was incubated for 30 mins at room temperature with 2 mM ATP, 5 mM MgCl2 and 12.5 mM DTT in 22.5 mM HEPES buffer (pH7.4). Preactivated GST-TIE2 was incubated for 30 mins at room temperature in 96 well plates with 1 μM D1-15 peptide, 80 uM ATP, 10 mM MgCl2, 0.1 mg/ml BSA and the test compound (diluted from a 10 mM stock in DMSO, final DMSO concentration was 2.4%) in 1 mM HEPES (pH7.4). The reaction was stopped by the addition of EDTA (final concentration 45 mM). Streptavidin linked-APC (allophycocyanin, Molecular Probe) and Europium-labeled anti-phosphorylated tyrosine antibody (Wallac) were then added at the final concentration of 17 μg/well and 2.1 μg/well, respectively. The APC signal was measured using an ARVO multilabel counter. (Wallac Berthold Japan). The percent inhibition of activity was calculated relative to blank control wells.
The concentration of test compound that inhibits 50% of activity (IC50) was interpolated using nonlinear regression (Levernberg-Marquardt) and the equation, y=Vmax (1−x/(K+x))+Y2, where “K” was equal to the IC50. The IC50 values were converted to pIC50 values, i.e., −log IC50 in Molar concentration.
Test compounds are employed in free or salt form.

GSK-3β = GSK-3β (Homo sapiens, UniProt P49841); test: GSK3 scintillation proximity assay (SPA) kinase assay; assay type: biochemical; details: 20 nM kinase, 2.5 uM ATP, biotinylated glycogen synthase peptide, 40 minutes at room temperature; -log IC50 in Molar; read-out: GSK-3 pIC50 (converted)
Sequence of GSK-3β (P49841 whole entry, species assumed): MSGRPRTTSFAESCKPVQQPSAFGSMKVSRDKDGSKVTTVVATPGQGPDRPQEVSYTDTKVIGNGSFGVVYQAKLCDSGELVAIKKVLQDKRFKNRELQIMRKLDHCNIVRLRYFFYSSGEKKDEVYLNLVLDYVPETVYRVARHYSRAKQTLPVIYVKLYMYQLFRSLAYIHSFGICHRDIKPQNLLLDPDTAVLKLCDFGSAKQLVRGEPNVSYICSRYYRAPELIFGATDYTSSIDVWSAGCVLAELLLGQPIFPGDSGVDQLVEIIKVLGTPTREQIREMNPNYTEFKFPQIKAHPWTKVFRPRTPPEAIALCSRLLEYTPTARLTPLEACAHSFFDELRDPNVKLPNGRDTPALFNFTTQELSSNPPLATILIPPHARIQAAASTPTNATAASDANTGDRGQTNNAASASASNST
Source text: The phosphorylated biotinylated peptide is then captured onto streptavidin coated scintillation proximity assay (SPA) beads from Amersham Technology, where the signal from the ^33P is amplified via the scintillant contained in the beads.
GSK-3β is commercially available or may be cloned and expressed in E. coli using standard techniques to produce soluble, active protein. The production of active protein involves purification in two steps using Metal Chelate and Ion Exchange Chromatography. Protein eluting from Ion Exchange provides >90% pure product that may then be concentrated for use in high throughput screening.
The kinase was assayed at a concentration of 20 nM final in 100 mM HEPES, pH 7.2 containing 10 mM magnesium chloride, 0.1 mg/mL bovine serum albumin, 1 mM dithiothreitol, 0.3 mg/mL heparin, 2.8 uM peptide substrate, 2.5 uM ATP, and 0.2 uCi/well [[…]-^33P]-ATP. After 40 minutes incubation at room temperature, the reaction was stopped by addition of 100 mM EDTA and […] in 100 mM HEPES, pH7.2 followed by an additional solution of diluted Streptavidin coated SPA beads in PBS, pH 7.2 to give a final concentration of 0.25 mg of beads per assay well in a 96-well microtiter plate.
10 mM stock solutions of the compounds of the invention in 100% DMSO are generated as a first step in the screening process. The second step involves the creation of dose response plates where these compounds are diluted 10-fold in 100% DMSO to 1 mM concentrations and subsequently serially diluted 3-fold in 100% DMSO across the plate by automated liquid handling such that the final top concentration of inhibitor is 0.033 mM in the 30 uL kinase assay. The third step involves the creation of the assay plates. This is achieved by transferring 1 uL of the compounds to assay plates by automated liquid handling. The fourth step is to perform the assay as described and count the resulting plates in the Packard TopCount NXT microplate scintillation and luminescence counter.
The final step is data acquisition and analysis where IC50 values are generated for each compound by normalizing curve data to the equation 100*(U1−C2)/(C1−C2) (where U1 is the cpm value, C2 is the background, and C1 is the maximum number of counts), then fitting the normalized data to the equation y=Vmax*(1−(x/(K+x))). The IC50 values were converted to pIC50 values, i.e., −log IC50 in Molar concentration. The data is expressed below in Table 1.

T1 sequence (Q02763 762-1104): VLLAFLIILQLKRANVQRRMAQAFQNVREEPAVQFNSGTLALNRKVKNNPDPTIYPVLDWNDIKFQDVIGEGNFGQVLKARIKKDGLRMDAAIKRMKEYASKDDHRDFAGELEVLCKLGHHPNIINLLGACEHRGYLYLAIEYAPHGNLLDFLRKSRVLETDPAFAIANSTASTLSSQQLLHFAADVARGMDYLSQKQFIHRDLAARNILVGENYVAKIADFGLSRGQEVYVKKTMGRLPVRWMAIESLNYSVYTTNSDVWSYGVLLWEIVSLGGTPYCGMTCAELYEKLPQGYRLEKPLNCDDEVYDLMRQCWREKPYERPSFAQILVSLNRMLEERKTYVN

Row | SMILES | IC50 [1] | IC50 (GSK-3β)
1 | CC(=O)Nc1ccc(/C=N/Nc2ncnc3c2cnn3-c2ccccc2)cc1 [Example 52, 4-Acetamidobenzaldehyde [1-(phenyl)-1H-pyrazolo[3,4-d]pyrimidin-4-yl]hydrazone] | 100 to 1000 nM | 100 to 1000 nM
2 | OCCOc1ccc(/C=N/Nc2ncnc3c2cnn3-c2ccccc2)cc1 [Example 53, 4-(2-Hydroxyethoxy)benzaldehyde [1-(phenyl)-1H-pyrazolo[3,4-d]pyrimidin-4-yl]hydrazone] | 1000 to 10000 nM | 100 to 1000 nM
3 | COc1ccc(/C=N/Nc2ncnc3c2cnn3-c2ccccc2)cc1OC [Example 56, 3,4-Dimethoxybenzaldehyde [1-(phenyl)-1H-pyrazolo[3,4-d]pyrimidin-4-yl]hydrazone] | 100 to 1000 nM | 100 to 1000 nM
4 | [O-][n+]1ccc(/C=N/Nc2ncnc3c2cnn3-c2ccccc2)cc1 [Example 58, Pyridine-N-oxide-4-carboxaldehyde [1-(phenyl)-1H-pyrazolo[3,4-d]pyrimidin-4-yl]hydrazone] | 1000 to 10000 nM | < 100 nM
5 | CCN(CC)CCOc1ccc(/C=N/Nc2ncnc3c2cnn3-c2ccccc2)cc1 [Example 60, 4-(2-(Diethylamino)-ethoxy)-benzaldehyde [1-(phenyl)-1H-pyrazolo[3,4-d]pyrimidin-4-yl]hydrazone] | 100 to 1000 nM | 100 to 1000 nM
6 | O=C(O)/C=C/c1ccc(/C=N/Nc2ncnc3c2cnn3-c2ccccc2)cc1 [Example 61, 4-Formylcin namic acid [1-(phenyl)-1H-pyrazolo[3,4-d]pyrimidin-4-yl]hydrazone] | 100 to 1000 nM | 100 to 1000 nM
